B1: OVA: albumin (OVA) protein, unformulated allergen given orally as OIT comparator (protein, UniProt P01012 2-386, looked up)
Ovalbumin: GSIGAASMEFCFDVFKELKVHHANENIFYCPIAIMSALAMVYLGAKDSTRTQINKVVRFDKLPGFGDSIEAQCGTSVNVHSSLRDILNQITKPNDVYSFSLASRLYAEERYPILPEYLQCVKELYRGGLEPINFQTAADQARELINSWVESQTNGIIRNVLQPSSVDSQTAMVLVNAIVFKGLWEKAFKDEDTQAMPFRVTEQESKPVQMMYQIGLFRVASMASEKMKILELPFASGTMSMLVLLPDEVSGLEQLESIINFEKLTEWTSSNVMEERKIKVYLPRMKMEEKYNLTSVLMAMGITDVFSSSANLSGISSAESLKISQAVHAAHAEINEAGREVVGSAEAGVDAASVSEEFRADHPFLFCIKHIATNAVLFFGRCVSP

Columns and labels:
[1] = tested on: C57BL/6 mice given 3% DSS (acute colitis); test: DSS-induced acute colitis model; assay type: in vivo; conditions: 3% DSS for 6 days, oral gavage
Excerpt: We examined whether oral administration of inulin gel loaded with an immune tolerizing drug can exert therapeutic efficacy against colitis. Mice were given 3% DSS in drinking water for 6 days to induce acute colitis. Starting day 0, mice were also orally gavaged with either PBS, an Ahr ligand, indole-3-aldehyde (IALD), or inulin gel formulated with IALD (inulin gel + IALD) (FIG. 5A).
Method: Six-week-old female C57BL/6 mice were acclimatized for 2 weeks before the start of the study. To induce colitis, mice were given 3% DSS (40 kDa; Alfa Aesar) supplemented in the drinking water for 6 days, followed by giving normal water. Inulin gel + IALD, IALD or PBS was orally gavaged into mice on predetermined days. The inulin gel + IALD was prepared by dissolving 300 mg of inulin from chicory (Sigma-Aldrich) in 0.9 ml deionized water and 0.1 ml IALD solution (50 mg/mL, DMSO). The inulin solution was thoroughly mixed with IALD solution by vortex and was heated to 70° C. for 5 min. The formulation was kept at room temperature for 12 h for gelation. The IALD was prepared similarly without adding the inulin. Bodyweight were measured daily over the experimental period. On day 9, mice were sacrificed, and the entire colon was excised. Colon length and the cecum weight was measured.

[2] = tested on: BABL/c mice sensitized with OVA/Alum (OVA allergy); assay type: in vivo; conditions: after the 3rd OVA challenge; escalated dose OIT
Procedure: To simulate the widely used therapeutic plan in clinic, we next provided the escalated dose of OVA in OIT treatment (FIG. 2a).
Preparation and characterization of inulin gel, PE or OVA loaded inulin gel. For OVA-related study, 495 mg of inulin from chicory (Sigma-Aldrich) was dissolved in 1.35 mL PBS and heated for 5 min. OVA (Sigma-Aldrich) was added right after cool-down of inulin. For PE-related study, 300 mg of inulin from chicory (Sigma-Aldrich) was dissolved in 0.9 mL deionized water, after heating for 5 min, 8 mg of PE was added right after cool-down. Samples were kept at 4° C. for 24 h. […] The content of protein in peanut extraction (around 20%) was determined by BCA assay.
In vivo oral sensitization, immunotherapy, and challenge. […] Body weight before all times of i.g. challenge were recorded, while the body temperature in the last time of i.g. challenge was measured. […] On day 73, mice were i.p. injected with 125 µg PE and the body temperature was recorded at preset times via rectal temperature probe.
Assessment of hypersensitivity reactions and diarrhea. Anaphylactic symptoms were evaluated between 30 to 50 minutes after i.p. challenge of PE (125 µg/dose) or i.g. challenge of OVA (50 mg/dose). […] For OVA study, mice with profuse liquid stool up to 1 h after i.g. challenge were recorded as diarrhea-positive animals. […]
Intestinal mast cell quantification. […]

| Molecule | bodyweight loss ([1]; daily bodyweight for 9 d) | shortening of the colon length ([1]; day 9) | death after OVA challenge [2] |
| --- | --- | --- | --- |
| O=Cc1c[nH]c2ccccc12 [IALD, indole-3-aldehyde] | significant bodyweight loss | shortening of the colon length |  |
| B1 |  |  | Some mice in the OVA group died |
